Here are results for two compounds from patent publication US12240921B2, “Peptides” (priority 2022, dated 2025).

Assay [1] concerns BDNF. As to the kind of experiment: In vivo efficacy in wild-type mice, single SC dose: BDNF levels (western blotting). On the set-up: species or system mouse. As to conditions: single SC dose: LLP11 21 mg/kg, LLP12 26 mg/kg, CLP11 21 mg/kg; 4 and 8 hours. The protocol:
4 and 8 hour timepoints were chosen.
4-hour timepoint were chosen.
A general note: Immunoblotting shows a protein as a band on a membrane.

Assay [2] relates to Wistar Kyoto rats. As to the kind of experiment: Wistar Kyoto (WKY) rat model of depression: EEG/EMG sleep-wake recording. The class given is in vivo. The note with it: single injection, 0-3 h post dosing. Here is the method: Ketamine (10 mg/kg), a N-methyl-D-aspartate-receptor antagonist, was used as positive control. All rats received all treatments 2 h after light onset in a pseudo randomized crossover fashion with a minimum period of 3 days between treatments. The rats were placed individually in recording boxes, and sleep-wake behaviour was recorded for 24 h. EEG/EMG signals were amplified, analogue filtered (0.5-100 Hz), digitized (500 Hz), and then digitally filtered (EEG: 0.5-100 Hz and EMG: 70-100 Hz). EEG/EMG recordings were semi-automatically scored as wake, non-REM (NREM) sleep, or REM sleep in 10 s epochs using SleepSign. Sleep stages were defined as below: […]

Starred links: 1 amine or outer side, 2 acyl side, 3 side chain; linkers in the order of their positions; H or OH if unused. Groups on a side chain read outwards from the residue. No end group written: not given here. *: point of attachment. C18 diacid = O=C(O)CCCCCCCCCCCCCCCCC(=O)*; γGlu = O=C(O)[C@H](CCC(=O)[*:2])N[*:1]; AEEA = NCCOCCOCC(=O)O

As to “LLP12: Linear lipidated peptide K*EQEMTEPVEHEEDV-NH2, * = C18DA-γGlu-OEG-OEG- (K([AEEA-AEEA-γGlu-C18 diacid])EQEMTEPVEHEEDV-NH2; N-terminus assumed; SMILES CSCC[C@H](NC(=O)[C@H](CCC(=O)O)NC(=O)[C@H](CCC(N)=O)NC(=O)[C@H](CCC(=O)O)NC(=O)[C@@H](N)CCCCNC(=O)COCCOCCNC(=O)COCCOCCNC(=O)CC[C@H](NC(=O)CCCCCCCCCCCCCCCCC(=O)O)C(=O)O)C(=O)N[C@H](C(=O)N[C@@H](CCC(=O)O)C(=O)N1CCC[C@H]1C(=O)N[C@H](C(=O)N[C@@H](CCC(=O)O)C(=O)N[C@@H](Cc1c[nH]cn1)C(=O)N[C@@H](CCC(=O)O)C(=O)N[C@@H](CCC(=O)O)C(=O)N[C@@H](CC(=O)O)C(=O)N[C@H](C(N)=O)C(C)C)C(C)C)[C@@H](C)O)”, the “BDNF levels in vivo” value in assay [1] was “increase BDNF in vivo”.

For `CNC1(c2ccccc2Cl)CCCCC1=O` (stereo not drawn) [ketamine], in assay [2], the “REM & NREM sleep” value is reported as “at the expense of REM & NREM sleep” and the “time spent awake (wakefulness)” value is “increased time spent awake”.
